# Peptide text beside a SMILES is read from it. * marks the point of attachment. X3 = CC(C)[C@H](/C=C(\F)[C@H](C)N)C(=O)*; X4 = C[C@H](/C=C(\Cl)[C@H](C)N)C(=O)*; X2 = C[C@H](/C=C(\F)[C@H](C)N)C(=O)*
# Experiments:
# [1] = molecular target: T1, 5-hydroxytryptamine receptor 1A (Homo sapiens, UniProt P08908); type: functional, cell-based, CHO
# T1 sequence (P08908 whole entry): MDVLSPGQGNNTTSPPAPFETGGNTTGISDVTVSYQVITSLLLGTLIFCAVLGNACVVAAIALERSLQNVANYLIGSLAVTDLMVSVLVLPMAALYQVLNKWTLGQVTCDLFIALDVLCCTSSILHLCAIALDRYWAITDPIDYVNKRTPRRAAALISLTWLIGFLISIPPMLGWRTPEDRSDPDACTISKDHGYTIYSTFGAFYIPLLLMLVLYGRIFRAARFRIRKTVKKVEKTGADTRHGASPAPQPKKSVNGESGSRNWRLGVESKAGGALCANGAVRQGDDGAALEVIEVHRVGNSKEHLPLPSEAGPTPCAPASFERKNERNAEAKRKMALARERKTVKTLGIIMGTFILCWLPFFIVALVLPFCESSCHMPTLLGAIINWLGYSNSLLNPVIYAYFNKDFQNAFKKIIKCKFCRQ
# Procathepsin L = Procathepsin L (Homo sapiens, UniProt P07711)
# Chain of Procathepsin L (P07711 whole entry): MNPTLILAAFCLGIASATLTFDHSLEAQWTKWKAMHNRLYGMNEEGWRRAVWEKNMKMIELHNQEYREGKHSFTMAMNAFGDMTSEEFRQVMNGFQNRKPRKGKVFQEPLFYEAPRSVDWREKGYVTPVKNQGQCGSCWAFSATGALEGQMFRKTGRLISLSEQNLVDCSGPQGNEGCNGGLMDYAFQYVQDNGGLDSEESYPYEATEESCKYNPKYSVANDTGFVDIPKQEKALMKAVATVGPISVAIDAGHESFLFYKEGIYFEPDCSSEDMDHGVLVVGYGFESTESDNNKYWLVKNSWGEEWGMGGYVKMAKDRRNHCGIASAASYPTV
# [2] = molecular target: D(2) dopamine receptor (Homo sapiens) (UniProt P14416)
# Chain of D(2) dopamine receptor (Homo sapiens) (P14416 whole entry): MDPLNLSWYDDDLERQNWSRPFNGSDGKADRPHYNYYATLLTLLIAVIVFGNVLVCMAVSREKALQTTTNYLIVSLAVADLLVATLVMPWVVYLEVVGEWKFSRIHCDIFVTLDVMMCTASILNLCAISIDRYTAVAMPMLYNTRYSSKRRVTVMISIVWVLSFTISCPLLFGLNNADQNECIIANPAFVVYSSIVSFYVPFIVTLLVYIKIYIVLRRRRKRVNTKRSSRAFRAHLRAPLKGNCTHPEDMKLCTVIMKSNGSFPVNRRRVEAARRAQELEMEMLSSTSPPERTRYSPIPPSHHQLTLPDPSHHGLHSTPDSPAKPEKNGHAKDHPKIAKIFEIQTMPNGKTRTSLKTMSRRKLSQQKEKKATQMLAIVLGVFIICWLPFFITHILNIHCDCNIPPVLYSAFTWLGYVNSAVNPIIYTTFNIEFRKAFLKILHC
# [3] = molecular target: T2, Parathyroid hormone/parathyroid hormone-related peptide receptor (Homo sapiens, UniProt Q03431)
# T2 sequence (Q03431 whole entry): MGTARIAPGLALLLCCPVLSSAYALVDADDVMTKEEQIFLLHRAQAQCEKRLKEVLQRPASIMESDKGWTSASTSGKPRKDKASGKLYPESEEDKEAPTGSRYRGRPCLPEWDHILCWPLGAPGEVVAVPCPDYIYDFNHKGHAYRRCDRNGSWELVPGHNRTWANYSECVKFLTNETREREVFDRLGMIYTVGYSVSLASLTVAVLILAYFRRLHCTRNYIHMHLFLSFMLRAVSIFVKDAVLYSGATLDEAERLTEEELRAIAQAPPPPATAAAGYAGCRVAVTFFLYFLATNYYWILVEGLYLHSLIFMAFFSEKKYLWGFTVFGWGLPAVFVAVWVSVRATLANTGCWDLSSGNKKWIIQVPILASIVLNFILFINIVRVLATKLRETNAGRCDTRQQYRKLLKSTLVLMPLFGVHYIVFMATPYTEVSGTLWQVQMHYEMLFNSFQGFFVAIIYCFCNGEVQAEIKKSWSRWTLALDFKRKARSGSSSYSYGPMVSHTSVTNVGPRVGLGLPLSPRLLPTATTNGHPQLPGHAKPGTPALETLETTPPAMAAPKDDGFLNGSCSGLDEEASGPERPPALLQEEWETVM
# [4] = molecular target: T2, Parathyroid hormone/parathyroid hormone-related peptide receptor; experiment: biochemical
# Bacterial 70S ribosome = type: subcellular, Bacteria
# Staphylococcus hominis = experiment: microbe, parasite or virus in culture; type: functional; settings: IP8203
# Prothrombin = Prothrombin (Homo sapiens, UniProt P00734)
# Plasmodium berghei = experiment: microbe, parasite or virus in culture; type: functional, organism-based
smiles,measurement,setting,value
c1ccc2c(CCCCN3CCN(c4ccc5c(c4)OCCO5)CC3)c[nH]c2c1,IC50,[1],8 nM
N#Cc1nc(N2CCOCC2)nc(N(Cc2c(F)cccc2F)C2CCCC2)n1,Ki,Procathepsin L,100 nM
c1ccc(CNCCOc2cccc3[nH]cnc23)cc1,KiH,[2],9.8 nM
Fc1ccc2[nH]cc(CCCCN3CCN(c4ccc5c(c4)OCCO5)CC3)c2c1,IC50,[1],5 nM
Fc1ccc2[nH]cc(CCCCN3CCN(c4ccc5c(c4)OCO5)CC3)c2c1,IC50,[1],4 nM
Oc1nc2c3c(ccc2[nH]1)CCC(CNCc1ccccc1)O3 (configuration not stated),KiH,[2],0.14 nM
N#Cc1nc(N2CCOCC2)nc(N(Cc2ccc(F)cc2)C2CCCC2)n1,Ki,Procathepsin L,501 nM
N#Cc1nc(N2CCOCC2)nc(N(Cc2ccc(F)cc2F)C2CCCC2)n1,Ki,Procathepsin L,126 nM
FC(F)(F)c1nc2c(OCCNCc3ccccc3)cccc2[nH]1,KiH,[2],0.18 nM
N#Cc1nc(N2CCOCC2)nc(N(Cc2cccc(F)c2)C2CCCC2)n1,Ki,Procathepsin L,200 nM
Cc1nc2c(OCCNCc3ccccc3)cccc2[nH]1,KiH,[2],4.4 nM
CC[C@H](C)[C@H](NC(=O)[C@H](CCC(=O)O)NC(=O)[C@H](CO)NC(=O)[C@@H](/C=C(\F)[C@H](C)N)C(C)C)C(=O)N[C@@H](CCC(N)=O)C(=O)N[C@@H](CC(C)C)C(=O)N[C@@H](CCSC)C(=O)N[C@@H](Cc1c[nH]cn1)C(=O)N[C@@H](CC(N)=O)C(=O)N[C@@H](CC(C)C)C(=O)NCC(=O)N[C@@H](CCCCN)C(=O)N[C@@H](Cc1c[nH]cn1)C(=O)N[C@@H](CC(C)C)C(=O)N[C@@H](CC(N)=O)C(=O)N[C@@H](CO)C(=O)N[C@@H](CCSC)C(=O)N[C@@H](CCC(=O)O)C(=O)N[C@@H](CCCN=C(N)N)C(=O)N[C@H](C(=O)N[C@@H](CCC(=O)O)C(=O)N[C@@H](Cc1c[nH]c2ccccc12)C(=O)N[C@@H](CC(C)C)C(=O)N[C@@H](CCCN=C(N)N)C(=O)N[C@@H](CCCCN)C(=O)N[C@@H](CCCCN)C(=O)N[C@@H](CC(C)C)C(=O)N[C@@H](CCC(N)=O)C(=O)N[C@@H](CC(=O)O)C(=O)N[C@H](C(=O)N[C@@H](Cc1c[nH]cn1)C(=O)N[C@@H](CC(N)=O)C(=O)N[C@@H](Cc1ccccc1)C(=O)N[C@H](C(=O)N[C@@H](C)C(N)=O)C(C)C)C(C)C)C(C)C (X3-SEIQLMHNLGKHLNSMERVEWLRKKLQDVHNFVA-NH2),EC50,[3],4.4 nM
same,Kd,[4],1.26 nM
NCc1ccc(F)c(O)c1F,pKa,physchem,9.81
O=C1Cc2c(ccc3c2OC(CNCc2ccccc2)CC3)N1 (configuration not stated),KiH,[2],0.37 nM
CC[C@H](C)[C@H](NC(=O)[C@H](CCC(=O)O)NC(=O)[C@H](CO)NC(=O)[C@H](C)/C=C(\F)[C@H](C)N)C(=O)N[C@@H](CCC(N)=O)C(=O)N[C@@H](CC(C)C)C(=O)N[C@@H](CCSC)C(=O)N[C@@H](Cc1c[nH]cn1)C(=O)N[C@@H](CC(N)=O)C(=O)N[C@@H](CC(C)C)C(=O)NCC(=O)N[C@@H](CCCCN)C(=O)N[C@@H](Cc1c[nH]cn1)C(=O)N[C@@H](CC(C)C)C(=O)N[C@@H](CC(N)=O)C(=O)N[C@@H](CO)C(=O)N[C@@H](CCSC)C(=O)N[C@@H](CCC(=O)O)C(=O)N[C@@H](CCCN=C(N)N)C(=O)N[C@H](C(=O)N[C@@H](CCC(=O)O)C(=O)N[C@@H](Cc1c[nH]c2ccccc12)C(=O)N[C@@H](CC(C)C)C(=O)N[C@@H](CCCN=C(N)N)C(=O)N[C@@H](CCCCN)C(=O)N[C@@H](CCCCN)C(=O)N[C@@H](CC(C)C)C(=O)N[C@@H](CCC(N)=O)C(=O)N[C@@H](CC(=O)O)C(=O)N[C@H](C(=O)N[C@@H](Cc1c[nH]cn1)C(=O)N[C@@H](CC(N)=O)C(=O)N[C@@H](Cc1ccccc1)C(=O)N[C@H](C(=O)N[C@@H](C)C(N)=O)C(C)C)C(C)C)C(C)C (X2-SEIQLMHNLGKHLNSMERVEWLRKKLQDVHNFVA-NH2),EC50,[3],9.1 nM
same,Kd,[4],6.31 nM
CC1=C\[C@@H](O)C[C@@H](O)Cc2nc(co2)C(=O)N2CCC[C@@H]2C(=O)O[C@H](C(C)C)[C@H](C)/C=C/C(=O)NC\C=C\1,IC50,Bacterial 70S ribosome,50 nM
same,MIC,Staphylococcus hominis,1 µg/mL
Clc1ccc2[nH]cc(CCCCN3CCN(c4ccc5c(c4)OCCO5)CC3)c2c1,IC50,[1],40 nM
CC1=C\[C@@H](O)C[C@@H](F)Cc2nc(co2)C(=O)N2CCC[C@@H]2C(=O)O[C@H](C(C)C)[C@H](C)/C=C/C(=O)NC\C=C\1,IC50,Bacterial 70S ribosome,60 nM
same,MIC,Staphylococcus hominis,0.25 µg/mL
CC1=C\[C@@H](O)C[C@H](O)Cc2nc(co2)C(=O)N2CCC[C@@H]2C(=O)O[C@H](C(C)C)[C@H](C)/C=C/C(=O)NC\C=C\1,IC50,Bacterial 70S ribosome,6000 nM
same,MIC,Staphylococcus hominis,32 µg/mL
CC1=C\[C@@H](O)CC(=O)Cc2nc(co2)C(=O)N2CCC[C@@H]2C(=O)O[C@H](C(C)C)[C@H](C)/C=C/C(=O)NC\C=C\1 [VOLPRISTIN],IC50,Bacterial 70S ribosome,100 nM
same,MIC,Staphylococcus hominis,4 µg/mL
N#Cc1nc(N2CCOCC2)nc(N(Cc2ccncc2)C2CCCC2)n1,Ki,Procathepsin L,158 nM
N=C(N)c1ccc([C@H]2[C@H]3C(=O)N(Cc4cccc(F)c4F)C(=O)[C@H]3[C@@H]3CCCN32)cc1,Ki,Prothrombin,490 nM
FC(F)(F)c1nc2c3c(ccc2[nH]1)CCC(CNCc1ccccc1)O3 (configuration not stated),KiH,[2],5.75 nM
CC[C@H](C)[C@H](NC(=O)[C@H](CCC(=O)O)NC(=O)[C@H](CO)NC(=O)[C@H](C)/C=C(\Cl)[C@H](C)N)C(=O)N[C@@H](CCC(N)=O)C(=O)N[C@@H](CC(C)C)C(=O)N[C@@H](CCSC)C(=O)N[C@@H](Cc1c[nH]cn1)C(=O)N[C@@H](CC(N)=O)C(=O)N[C@@H](CC(C)C)C(=O)NCC(=O)N[C@@H](CCCCN)C(=O)N[C@@H](Cc1c[nH]cn1)C(=O)N[C@@H](CC(C)C)C(=O)N[C@@H](CC(N)=O)C(=O)N[C@@H](CO)C(=O)N[C@@H](CCSC)C(=O)N[C@@H](CCC(=O)O)C(=O)N[C@@H](CCCN=C(N)N)C(=O)N[C@H](C(=O)N[C@@H](CCC(=O)O)C(=O)N[C@@H](Cc1c[nH]c2ccccc12)C(=O)N[C@@H](CC(C)C)C(=O)N[C@@H](CCCN=C(N)N)C(=O)N[C@@H](CCCCN)C(=O)N[C@@H](CCCCN)C(=O)N[C@@H](CC(C)C)C(=O)N[C@@H](CCC(N)=O)C(=O)N[C@@H](CC(=O)O)C(=O)N[C@H](C(=O)N[C@@H](Cc1c[nH]cn1)C(=O)N[C@@H](CC(N)=O)C(=O)N[C@@H](Cc1ccccc1)C(=O)N[C@H](C(=O)N[C@@H](C)C(N)=O)C(C)C)C(C)C)C(C)C (X4-SEIQLMHNLGKHLNSMERVEWLRKKLQDVHNFVA-NH2),EC50,[3],5.5 nM
same,Kd,[4],1.26 nM
N=C(N)c1ccc([C@H]2[C@H]3C(=O)N(Cc4ccc(F)cc4F)C(=O)[C@H]3[C@@H]3CCCN32)cc1,Ki,Prothrombin,260 nM
N#Cc1nc(N2CCOCC2)nc(N(Cc2cccnc2)C2CCCC2)n1,Ki,Procathepsin L,100 nM
Oc1nc2c(OCCNCc3ccccc3)cccc2[nH]1,KiH,[2],0.18 nM
N#Cc1ccc2[nH]cc(CCCCN3CCN(c4ccc5c(c4)OCO5)CC3)c2c1,IC50,[1],0.7 nM
N#Cc1nc(N2CCOCC2)nc(N(Cc2ccncn2)C2CCCC2)n1,Ki,Procathepsin L,251 nM
N#Cc1nc(N2CCOCC2)nc(N(Cc2cc(F)ccc2F)C2CCCC2)n1,Ki,Procathepsin L,251 nM
C[C@@H]1CC[C@H]2[C@@H](C)C(=O)O[C@@H]3O[C@@]4(C)CC[C@@H]1[C@]32OO4 [ARTEMISININ],IC50,Plasmodium berghei,8.9 nM
same,IC90,Plasmodium berghei,14.5 nM
N#Cc1ccc2[nH]cc(CCCCN3CCN(c4ccc5c(c4)OCCO5)CC3)c2c1,IC50,[1],1 nM
NC(=O)c1cc2cc(N3CCN(CCCCc4c[nH]c5ccc(F)cc45)CC3)ccc2o1,IC50,[1],3 nM
CC1=C\[C@@H](O)C[C@H](F)Cc2nc(co2)C(=O)N2CCC[C@@H]2C(=O)O[C@H](C(C)C)[C@H](C)/C=C/C(=O)NC\C=C\1,IC50,Bacterial 70S ribosome,500 nM
same,MIC,Staphylococcus hominis,8 µg/mL
N=C(N)c1ccc([C@H]2[C@H]3C(=O)N(Cc4ccc(Cl)cc4)C(=O)[C@H]3[C@@H]3CCCN32)cc1,Ki,Prothrombin,190 nM
C[C@@H]1CC[C@H]2[C@@H](C)C(=C(F)F)O[C@@H]3O[C@@]4(C)CC[C@@H]1[C@]32OO4,IC50,Plasmodium berghei,20 nM
N#Cc1nc(N2CCOCC2)nc(N(Cc2ncccn2)C2CCCC2)n1,Ki,Procathepsin L,398 nM
CC1=C(C(F)(F)F)O[C@@H]2O[C@@]3(C)CC[C@H]4[C@H](C)CC[C@@H]1[C@@]24OO3,IC50,Plasmodium berghei,4.6 nM
same,IC90,Plasmodium berghei,7.3 nM
N#Cc1nc(N2CCOCC2)nc(N(Cc2cnccn2)C2CCCC2)n1,Ki,Procathepsin L,158 nM
N=C(N)c1ccc([C@H]2[C@H]3C(=O)N(Cc4cccc(F)c4)C(=O)[C@H]3[C@@H]3CCCN32)cc1,Ki,Prothrombin,360 nM
N=C(N)c1ccc([C@H]2[C@H]3C(=O)N(Cc4ccccc4F)C(=O)[C@H]3[C@@H]3CCCN32)cc1,Ki,Prothrombin,500 nM
NCc1cc(F)c(O)c(F)c1,pKa,physchem,7.12
